Results published in patent US20250312310A1, “Beta2-adrenergic receptor antagonists for use in treating diabetes or obesity” (NovelYeast bv, priority 2021, published 2025).
Entries after “also recorded” stand apart in the source; their conditions may differ. Like-named read-outs stand apart in the source and are kept apart here. The star is where a group is joined. Myristoyl = CCCCCCCCCCCCCC(=O)*

Experiments:
[1] = system: everted sacs prepared from rat intestine; assay: Glucose uptake into everted sacs of rat intestine; conditions: for Effect on epinephrine stimulation of glucose uptake: epinephrine 10 μM, mPKI 1 μM; for Effect on epinephrine stimulation of glucose uptake / Inhibition of the stimulation of glucose transport by mannose: ICI 118,551 10 μM; for Effect on epinephrine stimulation of glucose uptake / Effect on basal glucose transport: colchicine 5 μM; for Effect on basal glucose transport: ICI 118,551 10 μM with 2.5 mM glucose; for Inhibition of the stimulation of glucose transport by mannose: LX4211 2 μM (also inhibits glucose transport itself)
Experimental: Rats weighing around 150 g were fasted overnight before the experiment, and euthanized by cervical dislocation on the day of the experiment. The abdomen was opened by a midline incision, and a segment of around 35 cm of proximal intestine was isolated. The intestinal segment was rinsed with ice-cold Ringer solution (composition (mM): 140 NaCl, 5 KCl, 1 MgCl2, 2 CaCl2, 10 HEPES, 10 TRIS, gassed with 95% O2 and 5% CO2, pH 7.4), and 4-7 everted sacs were prepared, each approximately 3 cm in length, by tying off the ends of the intestinal segments with threads (46). The sacs were filled with Ringer solution containing 5 mM mannitol (Sigma Aldrich) (to maintain osmotic balance) and L-glutamine (2 mM) (Sigma Aldrich) (as an energy source). Each everted sac was transferred to a separate glass beaker containing 50 mL continuously oxygenated Ringer solution with L-glutamine (2 mM), and maintained in a water bath at 37° C. Then, epinephrine 10 μM (Sigma Aldrich), mannose 5 mM (Sigma Aldrich), ICI 118,551 10 μM (Sigma Aldrich), phlorizin 100 μM (Sigma Aldrich), LX4211 2 μM (MedKoo Biosciences, Inc. USA.) or Ringer solution were added to the respective beaker for a 15-min pre-incubation (concentrations indicate final concentrations of the compounds). For the sacs treated with ICI 118,551, phlorizin or LX 4211, the inhibitors were added before mannose or epinephrine. After pre-incubation, 5 mM glucose, or 2.5 mM glucose for the ICI 118,551 control experiment, was added to the external buffer to initiate glucose transport. […] These samples were analyzed using a glucose assay kit based on glucose oxidase (Sigma Aldrich, for details, see below). […] Also for colchicine, a TRIS-free Ringer solution was used, as TRIS interferes with colchicine activity (130). […] We noticed that it was important to take certain precautions during these experiments: the intestine was never allowed to overfill and be stretched while rinsing the intestinal lumen at the time of isolation and filling the everted sac with Ringer solution. Trapping air bubbles inside the everted sac was avoided. Also, the regions of the intestine where mucus was still present were not used for preparing everted sacs. […] The glucose concentration of the samples was assayed by a glucose assay kit (Sigma Aldrich, GOD/POD method). The assay procedure recommended by the kit was modified for small sample volumes as follows. Fifty μL of sample was transferred to a well of a 96-well plate, and at time zero, the reaction was started by adding 100 μL of assay reagent to the first well, and mixing. Each well was allowed to react for exactly 30 min at 37° C. The reaction was stopped by adding 100 μL of 12 N H2SO4 (Merck) into each well, and carefully mixing. The absorbance was measured at 540 nm with a plate reader (Tecan 200).

human β2-AR [2] = molecular target: T1, human β2-AR (Homo sapiens, UniProt P07550); assay: Calcium response (Fluo-4) in Flp-In-293 cells stably transfected with ADRB2 and GNA15; assay type: cell-based; conditions: for Activation of the β2-AR by sugars (calcium response): sugars at 50 mM, listed in order of decreasing intensity
Experimental: Assessment of β2-AR responses in cultured mammalian cells. […] The cell line expressing both β2-AR and Gα16 was selected in two successive transfection steps. First, Flp-In-293 cells were co-transfected with pMET7-ADRB2-FRT and pOG44. After Flp recombinase-assisted stable integration, an isogenic cell pool expressing the β2-AR was selected in hygromycin-containing medium (100 μg/ml). Second, the isogenic cell pool was cotransfected with p-GNA15 and pIRES-Puro2 (Clontech) in a 5:1 ratio, followed by selection of single clones in medium containing puromycin (0.8 μg/ml). Flp-In-293 cells were maintained in DMEM medium (Gibco), containing penicillin/streptomycin (Sigma) and fetal bovine serum (Sigma) (10%). Hygromycin (100 μg/mL) was added for cells containing the ADRB2 construct, and puromycin (1 μg/mL) was added for the cells containing the GNA15 construct. The Flp-In-293 cells were transferred for β2-AR assays to clear- and flat-bottom 96-well plates in DMEM (Gibco) containing dialyzed fetal bovine serum (Sigma). The plates were coated with fibronectin (Sigma). For that purpose, the fibronectin solution was diluted 40 times in PBS, added in the plate wells (60 μL), and removed again after incubation for 1 h, after which the plates were allowed to dry for 1 h. The Fluo-4 NW kit (Invitrogen) was used for detection of calcium signals following the manufacturer's protocol. All compounds tested were dissolved in HBSS (Sigma) at 37° C. Adrenergic antagonists (Sigma) were always added together with the Fluo4 compound, 50 min before addition of agonist. Agonists were added just prior to the actual measurement of the calcium signals generated. The Flexstation II apparatus (Molecular Devices) was used to perform calcium measurements. After overnight growth of the cells in transfer medium in the aforesaid multiwell-96 plates, the medium was removed, the cells incubated with 100 μL of the loading dye solution (Fluo-4), the plates covered with aluminum foil, and incubated at 37° C. for 30-50 min.

Caco-2 cells = assay: Caco-2 permeability assay; assay type: in vitro ADME, human
Text: (§1) Caco-2 cell permeability data of compound CD3-403 (apical to basal (A-B) and basal to apical (B-A), measured at pH 7.4 in both apical and basal compartment)

[3] = Caco-2 permeability assay; assay type: in vitro ADME, human; conditions: human; for Papp A→B / Papp B→A: Caco-2, pH 7.4; for Papp at 1 μM: summary, read-out: Permeability in Caco2 assay; for recovery at 1 μM: Caco-2, pH 7.4, Caco-2, 1.0 μM
Text: as §1

human β2-AR [4] = molecular target: T1, human β2-AR; assay: Competitive radioligand binding assay with 125I-cyanopindolol on membrane vesicles; parameters: purchased PerkinElmer RBHBE2M; conditions: maximal increase with increasing concentrations
Experimental: TRIS-HCl buffer containing MgCl2 and EGTA was used as incubation and assay buffer, while TRIS-HCl buffer was used as wash buffer. All buffers were cooled and all further steps performed on ice. Membranes were diluted 150 times in assay buffer. […] The mixtures were incubated for 1 h at ambient temperature, and subsequently filtered using a vacuum pump over GF/C filters (Whatman), pre-soaked in 0.5% polyethyleneimine.

[5] = In vivo oral glucose tolerance test; parameters: species or system rat; conditions: rats
Experimental: Animals and diet. All the experiments were approved by the ethical committee on animal experimentation of the KU Leuven. Wistar rats (Harlan Netherlands B.V.) were maintained on a 12 h light-12 h dark cycle, and fed with standard rat food chow and water ad libitum. The oral glucose tolerance test was performed on normal rats weighing around 250 g, which were fasted for 16 h before the test. Blood was sampled by tail vein puncture, and the blood glucose level was measured by glucometer (Verio OneTouch glucometer). Rats were divided in four groups: one with glucose 2 g/kg or glucose 4 g/kg (Sigma Aldrich), both in the presence or absence of CD3-403. […] Glucose or glucose along with CD3-403, dissolved in 0.9% saline, was administered to rats by oral gavage in the respective groups. […] All experiments were conducted around the same time in the morning.

human β2-AR [6] = molecular target: T1, human β2-AR; conditions: Xenopus oocytes, CFTR readout
Experimental: Two-Electrode Voltage Clamp (Xenopus oocytes). […] RNA was then transcribed in vitro with the Ribomax kit (Promega) or the mMESSAGE mMACHINE T7 kit (Ambion) following the manufacturer's protocol. RNA was visualized and its quality assessed on RNase-free agarose gels, and stored at −80° C.
For oocyte collection, female Xenopus frogs were anesthetized by submersion in ice water/crushed ice for 30 min. After abdominal incision, the ovarian lobes were pulled out, cut off, and the oocyte clump was placed in ORi. Oocytes were then liberated in ORi-collagenase (1 mg/mL) for 1-2 h on a shaking incubator, and subsequently transferred to a Ca^2+-free solution using one washing step. They were shaken vigorously for maximum 15 min before collecting the individual oocytes in ORi buffer. Stage V oocytes were then selected under the microscope.
For injection of the oocytes, RNA encoding the CFTR and/or β2-AR protein was drawn from a droplet afloat in mineral oil with a glass capillary. Injection volume was 46 nl. The amount of RNA varied between 10 and 25 ng. Injected oocytes were stored in ORi at 16° C. for maximum 3 days until ready for testing. During the measurements, oocytes were continuously clamped to −60 mV. All measurements were recorded using the home-made software, DSPOOC.

[7] = system: HEK-293 cells (endogenous β2-AR); conditions: 1 μM epinephrine
Experimental: Assessment of β2-AR responses in cultured mammalian cells. […] The cell line expressing both β2-AR and Gα16 was selected in two successive transfection steps. First, Flp-In-293 cells were co-transfected with pMET7-ADRB2-FRT and pOG44. After Flp recombinase-assisted stable integration, an isogenic cell pool expressing the β2-AR was selected in hygromycin-containing medium (100 μg/ml). Second, the isogenic cell pool was cotransfected with p-GNA15 and pIRES-Puro2 (Clontech) in a 5:1 ratio, followed by selection of single clones in medium containing puromycin (0.8 μg/ml). Flp-In-293 cells were maintained in DMEM medium (Gibco), containing penicillin/streptomycin (Sigma) and fetal bovine serum (Sigma) (10%). Hygromycin (100 μg/mL) was added for cells containing the ADRB2 construct, and puromycin (1 μg/mL) was added for the cells containing the GNA15 construct. The Flp-In-293 cells were transferred for β2-AR assays to clear- and flat-bottom 96-well plates in DMEM (Gibco) containing dialyzed fetal bovine serum (Sigma). The plates were coated with fibronectin (Sigma). For that purpose, the fibronectin solution was diluted 40 times in PBS, added in the plate wells (60 μL), and removed again after incubation for 1 h, after which the plates were allowed to dry for 1 h. The Fluo-4 NW kit (Invitrogen) was used for detection of calcium signals following the manufacturer's protocol. […]

[8] = Rattus norvegicus, 1.25 h, phlorizin 100 μM, LX4211 2 μM, glucose accumulated after 75 min
[9] = concentration response curve, 1st experiment, read-out: IC50 (nM) 1st experiment
[10] = concentration response curve, 2nd experiment, read-out: IC50 (nM) 2nd experiment
[11] = summary of screening, read-out: IC50
[12] = Caco-2, test concentration 1.0E−06 M
[13] = second CD3 compounds overview table, epinephrine 5 nM, read-out: IC50
[14] = Caco-2, 1.0 μM, pH 7.4 in both compartments

## Myristoylated PKI 14-22 amide (Myristoyl-GRTGRRNAI-NH2; SMILES CCCCCCCCCCCCCC(=O)NCC(=O)N[C@@H](CCCNC(=N)N)C(=O)N[C@H](C(=O)NCC(=O)N[C@@H](CCCNC(=N)N)C(=O)N[C@@H](CCCNC(=N)N)C(=O)N[C@@H](CC(N)=O)C(=O)N[C@@H](C)C(=O)N[C@H](C(N)=O)[C@@H](C)CC)[C@@H](C)O; UniProt P61925 15-23, looked up, fragment)
[1]; phlorizin 100 μM
  Effect on epinephrine stimulation of glucose uptake: partially inhibited

## O=C(CCc1ccc(O)cc1)c1c(O)cc(O)cc1O[C@@H]1O[C@H](CO)[C@@H](O)[C@H](O)[C@H]1O [phlorizin]
[1]; [8]
  inhibition at 100 µM: > 90%
[1]; phlorizin 100 μM
  Effect on epinephrine stimulation of glucose uptake: inhibited both basal and enhanced glucose uptake

## O=CC[C@@H](O)[C@H](O)[C@H](O)CO [2 deoxy-D-glucose]
Human β2-AR [2]
  Activation of the β2-AR by sugars (calcium response): activated

## OC[C@H]1O[C@H](O[C@H]2O[C@H](CO)[C@@H](O)[C@H](O)[C@H]2O)[C@H](O)[C@@H](O)[C@@H]1O [trehalose]
Human β2-AR [2]
  Activation of the β2-AR by sugars (calcium response): activated

## Cc1c[nH]c2cccc(OC[C@H](O)CNC(C)(C)C)c12 [CD3-T1]
Human β2-AR [2]; [9]
  IC50: 6 nM
Human β2-AR [2]; [10]
  IC50: 0.6 nM
Human β2-AR [2]; [11]
  IC50: 6 nM
Caco-2 cells; test concentration 1.0E−06 M
  MeanRecovery (A-B): 71%
  MeanRecovery (B-A): 87%
[3]; test concentration 1.0E−06 M
  Papp A→B: 54.7 ×10⁻⁶ cm/s
  Papp B→A: 17.8 ×10⁻⁶ cm/s
[3]; Caco-2
  Papp at 1 μM: 54.7 ×10⁻⁶ cm/s
[3]; [12]
  efflux ratio at 1 µM: 0.325

## [Cl-].[Na+] [NaCl]
Human β2-AR [4]
  Increase of 125I-cyanopindolol binding: roughly 35%

## CC(C)NC[C@@H](O)COc1cccc2[nH]cc(CC(=O)N(C)C)c12 [CD3-T3]
Human β2-AR [2]; [9]
  IC50: 66 nM
Human β2-AR [2]; [10]
  IC50: 78 nM
Human β2-AR [2]; [11]
  IC50: 78 nM
Caco-2 cells; test concentration 1.0E−06 M
  MeanRecovery (A-B): 76%
  MeanRecovery (B-A): 90%
[3]; test concentration 1.0E−06 M
  Papp A→B: 0.1 ×10⁻⁶ cm/s
  Papp B→A: 3.2 ×10⁻⁶ cm/s
[3]; Caco-2
  Papp at 1 μM: 0.1 ×10⁻⁶ cm/s
[3]; [12]
  efflux ratio at 1 µM: 32

## maltotriose
Human β2-AR [2]; calcium response (FIG. 2d)
  EC50: ~10000 µM
Human β2-AR [2]
  Activation of the β2-AR by sugars (calcium response): activated

## CC(C)(C)NC[C@@H](O)COc1cccc2[nH]cc(CC(N)=O)c12 [CD3-403]
Human β2-AR [2]; 5 nM epinephrine, read-out: IC50 of the calcium response elicited by 5 nM epinephrine
  IC50: 46 nM
Human β2-AR [2]; [9]
  IC50: 221 nM
Human β2-AR [2]; [10]
  IC50: 46 nM
Human β2-AR [2]; concentration response curve, old stock, read-out: IC50 (nM) old stock
  IC50: 40 nM
Human β2-AR [2]; second CD3 compounds overview table, epinephrine 5 nM
  % INHIBITION: 97%
Human β2-AR [2]; [13]
  IC50: 40 nM
Human β2-AR [2]; [11]
  IC50: 46 nM
[5]; glucose 2 g/kg, 100% as baseline, mean±SD, control 8056±2990
  Area under the curve (AUC) of the glucose increase: 5907±2195
[5]; oral gavage, glucose 2 g/kg, 5 μM (0.05 mg/kg) CD3-403
  Increase in blood glucose level after oral glucose bolus: reduced increase in blood glucose level, which was significant at 60 min
[5]; oral gavage, glucose 4 g/kg, 5 μM (0.05 mg/kg) CD3-403
  Blood glucose concentration after oral glucose bolus: trend of decreased glucose concentration
Caco-2 cells; assessed by a Caco-2 permeability assay
  Cell permeability: very low cell permeability
Caco-2 cells; test concentration 1.0E−06 M
  Efflux: 3.25
  MeanRecovery (A-B): 83%
  MeanRecovery (B-A): 94%
[3]; pH 7.4 in both compartments, read-out: Mean Recovery (A-B)
  recovery at 1 μM: 83%
[3]; pH 7.4 in both compartments, read-out: Mean Recovery (B-A)
  recovery at 1 μM: 94%
[3]; test concentration 1.0E−06 M
  Papp A→B: 0.4 ×10⁻⁶ cm/s
  Papp B→A: 1.3 ×10⁻⁶ cm/s
[3]; Caco-2
  Papp at 1 μM: 0.4 ×10⁻⁶ cm/s
[3]; Caco-2, 1.0 μM, B-A/A-B
  efflux ratio at 1 µM: 3.25
[3]; [14]
  Papp A→B at 1 μM: 0.4 ×10⁻⁶ cm/s
  Papp B→A at 1 μM: 1.3 ×10⁻⁶ cm/s

## CC(C)(C)NCC(O)COc1cccc2c1CC(O)C(O)C2 (stereo not drawn) [nadolol, reference compound]
Human β2-AR [2]; 200 μM antagonist, 20 nM epinephrine
  Inhibition of the epinephrine response: Inhibition
Human β2-AR [2]; 200 μM antagonist, 70 mM sugar
  Inhibition of sugar responses: inhibited; also recorded: Inhibition
Human β2-AR [2]; Flp-In-293 β2-AR/Gα16 cells, Fluo4 fluorescence (FIG. 2a)
  Block of the calcium response to epinephrine: blocked

## COc1cc2c(c(OC)c1OC)-c1ccc(OC)c(=O)cc1[C@@H](NC(C)=O)CC2 [Colchicine]
[1]
  Effect on basal glucose transport: not basal glucose uptake
[1]; phlorizin 100 μM
  Effect on epinephrine stimulation of glucose uptake: completely blocked

## CC(C)(C)NCC(O)COc1cccc2[nH]cc(CC(=O)NN)c12 (racemic) [CD3 X]
Human β2-AR [2]; [11]
  IC50: 70 nM
Caco-2 cells; summary
  Permeability class in Caco2 assay: low permeability

## CCOc1ccc(Cc2cc([C@@H]3O[C@H](SC)[C@@H](O)[C@H](O)[C@H]3O)ccc2Cl)cc1 [LX4211]
[1]
  Inhibition of the stimulation of glucose transport by mannose: completely inhibited
[1]; [8]
  inhibition at 2 µM: > 90%

## COc1ccc(OC)c(C(O)C(C)NC(C)(C)C)c1 (stereo not drawn) [Butoxamine, reference compound]
Human β2-AR [2]; [13]
  IC50: 14300 nM

## N[C@H]1C(O)O[C@H](CO)[C@@H](O)[C@@H]1O (stereo partly drawn) [Glucosamine]
Human β2-AR [2]
  Activation of the β2-AR by sugars (calcium response): very little effect

## OC[C@H]1O[C@H](O[C@H]2[C@H](O)[C@@H](O)C(O)O[C@@H]2CO)[C@H](O)[C@@H](O)[C@@H]1O (mixture of isomers) [maltose]
Human β2-AR [2]
  Activation of the β2-AR by sugars (calcium response): activated

## CNC[C@H](O)c1ccc(O)c(O)c1 [epinephrine]
Human β2-AR [6]
  Activation of the β2-AR (inward current and conductance): activated
[7]
  Calcium response in non-transfected HEK-293 cells: failed to show a calcium response
[7]; listed as Epinephrine
  Calcium response in non-transfected HEK-293 cells: did not elicit a calcium response
[1]; epinephrine 10 μM in external medium, 5 mM glucose, without epinephrine 440±132
  Glucose accumulated after 10 min in the sac: 833 ± 255 µM

## Cc1ccc(OCC(O)C(C)NC(C)C)c2c1CCC2 (stereo not drawn) [ICI 118,551]
[1]
  Effect on basal glucose transport: did not have any effect
  Inhibition of the stimulation of glucose transport by mannose: abolished
[1]; phlorizin 100 μM
  Effect on epinephrine stimulation of glucose uptake: completely prevented

## O=C(CO)[C@@H](O)[C@H](O)[C@H](O)CO [fructose]
Human β2-AR [2]
  Activation of the β2-AR by sugars (calcium response): activated

## O=C[C@H](O)[C@@H](O)[C@H](O)CO [xylose]
Human β2-AR [2]
  Activation of the β2-AR by sugars (calcium response): activated
